Paper PMC6631349 (Xenobiotica; the fate of foreign compounds in biological …, 2014)
Like-named read-outs stand apart in the source and are kept apart here.

Legend:
[1] = target: T1, UGT1A9 (Homo sapiens, UniProt O60656); test: UGT1A9 supersomes-catalyzed 4-MU glucuronidation inhibition; details: for residual activity 1A9: recombinant human UGT, mean of triplicate
T1 sequence (O60656 26-530): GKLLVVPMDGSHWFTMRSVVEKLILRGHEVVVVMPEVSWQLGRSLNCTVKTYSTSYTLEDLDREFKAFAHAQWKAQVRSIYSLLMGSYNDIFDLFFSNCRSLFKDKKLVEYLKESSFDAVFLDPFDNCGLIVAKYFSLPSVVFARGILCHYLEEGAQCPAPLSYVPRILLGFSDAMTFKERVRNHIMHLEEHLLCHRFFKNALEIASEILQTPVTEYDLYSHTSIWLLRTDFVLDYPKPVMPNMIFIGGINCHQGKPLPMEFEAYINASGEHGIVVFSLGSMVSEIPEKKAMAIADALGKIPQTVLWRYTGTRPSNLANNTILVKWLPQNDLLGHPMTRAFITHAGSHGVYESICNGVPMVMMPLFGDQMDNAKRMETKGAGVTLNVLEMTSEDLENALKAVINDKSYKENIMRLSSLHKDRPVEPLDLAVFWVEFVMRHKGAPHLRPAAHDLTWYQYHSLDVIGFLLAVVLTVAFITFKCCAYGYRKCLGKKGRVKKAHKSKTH

[2] = target: T2, UGT1A6 (Homo sapiens, UniProt P19224); details: for residual activity 1A6: recombinant human UGT, mean of triplicate; for inhibition percentage of UGT1A6 activity: 50 μM
T2 sequence (P19224 27-532): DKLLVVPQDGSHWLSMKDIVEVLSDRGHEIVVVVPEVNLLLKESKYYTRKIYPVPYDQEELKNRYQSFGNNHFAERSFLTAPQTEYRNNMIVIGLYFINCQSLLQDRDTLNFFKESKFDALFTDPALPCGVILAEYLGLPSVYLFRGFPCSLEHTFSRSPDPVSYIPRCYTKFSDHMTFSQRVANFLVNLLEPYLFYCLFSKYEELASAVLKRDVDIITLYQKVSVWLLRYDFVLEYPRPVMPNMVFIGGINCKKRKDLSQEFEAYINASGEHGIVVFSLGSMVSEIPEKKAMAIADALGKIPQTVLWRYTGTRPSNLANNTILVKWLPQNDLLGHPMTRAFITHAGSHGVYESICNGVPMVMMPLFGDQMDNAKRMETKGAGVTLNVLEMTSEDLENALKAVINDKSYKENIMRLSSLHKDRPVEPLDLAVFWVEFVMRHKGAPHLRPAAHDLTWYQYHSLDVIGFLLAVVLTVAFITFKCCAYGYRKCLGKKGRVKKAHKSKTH

[3] = target: T3, UGT1A8 (Homo sapiens, UniProt Q9HAW9); details: recombinant human UGT, mean of triplicate
T3 sequence (Q9HAW9 26-530): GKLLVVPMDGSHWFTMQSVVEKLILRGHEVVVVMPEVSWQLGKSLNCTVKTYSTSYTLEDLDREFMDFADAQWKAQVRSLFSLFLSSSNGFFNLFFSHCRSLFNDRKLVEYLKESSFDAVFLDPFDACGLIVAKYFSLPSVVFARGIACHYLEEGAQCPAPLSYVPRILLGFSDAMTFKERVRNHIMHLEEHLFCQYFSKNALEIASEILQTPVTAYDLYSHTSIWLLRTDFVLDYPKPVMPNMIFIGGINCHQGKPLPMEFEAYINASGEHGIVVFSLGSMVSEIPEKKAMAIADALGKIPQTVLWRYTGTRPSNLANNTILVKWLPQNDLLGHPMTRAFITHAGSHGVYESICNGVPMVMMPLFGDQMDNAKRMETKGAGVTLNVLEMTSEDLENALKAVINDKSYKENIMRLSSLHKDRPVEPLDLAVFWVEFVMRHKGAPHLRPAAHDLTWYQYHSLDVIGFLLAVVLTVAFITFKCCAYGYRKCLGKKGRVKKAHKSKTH

[4] = tested on: UGT isoforms; test: Initial screening towards all UGT isoforms; type: biochemical, human; details: about 50 μM; isoforms not given

| Compound | residual activity 1A9 ([1]; 50 μM LPC components) [%] | residual activity 1A6 ([2]; 50 μM LPC components) [%] | residual activity 1A8 ([3]; 50 μM LPC components) [%] | also measured |
| --- | --- | --- | --- | --- |
| CCCCCC(=O)OC[C@@H](O)COP(=O)([O-])OCC[N+](C)(C)C [LPC 6:0] | 95.9 | 72.7 | 108.0 | – |
| CCCCCCC(=O)OCC(O)COP(=O)([O-])OCC[N+](C)(C)C (stereo not drawn) [LPC 7:0] | 92.9 | 71.0 | 101.1 | – |
| CCCCCCCC(=O)OCC(O)COP(=O)([O-])OCC[N+](C)(C)C (stereo not drawn) [LPC 8:0] | 99.6 | 74.2 | 102.7 | – |
| CCCCCCCCC(=O)OC[C@@H](O)COP(=O)([O-])OCC[N+](C)(C)C [LPC 9:0] | 94.5 | 67.2 | 101.2 | – |
| CCCCCCCCCC(=O)OC[C@@H](O)COP(=O)([O-])OCC[N+](C)(C)C [LPC 10:0] | 99.2 | 65.7 | 100.7 | – |
| CCCCCCCCCCC(=O)OC[C@@H](O)COP(=O)([O-])OCC[N+](C)(C)C [LPC 11:0] | 104.6 | 65.7 | 124.0 | – |
| CCCCCCCCCCCC(=O)OC[C@@H](O)COP(=O)([O-])OCC[N+](C)(C)C [LPC 12:0] | 89.2 | 80.2 | 89.2 | – |
| CCCCCCCCCCCCC(=O)OC[C@@H](O)COP(=O)([O-])OCC[N+](C)(C)C [LPC 13:0] | 99.4 | 83.8 | 101.6 | – |
| CCCCCCCCCCCCCC(=O)OC[C@@H](O)COP(=O)([O-])OCC[N+](C)(C)C [LPC 14:0] | 97.5 | 33.3 | 19.2 | – |
| CCCCCCCCCCCCCCC(=O)OC[C@@H](O)COP(=O)([O-])OCC[N+](C)(C)C [LPC 15:0] | 82.8 | 2.9 | 1.6 | inhibition kinetic type towards UGT1A6 ([2]; Dixon and Lineweaver-Burk plots, 4-MU glucuronidation): competitive inhibition; inhibition of activity of UGT isoforms [4]: more than 90% |
| CCCCCCCCCCCCCCCCC(=O)OC[C@@H](O)COP(=O)([O-])OCC[N+](C)(C)C [LPC 17:0] | 87.5 | 8.5 | 2.2 | inhibition of activity of UGT isoforms [4]: more than 90% |
| CCCCCC(=O)OC[C@H](COP(=O)([O-])OCC[N+](C)(C)C)OC(=O)CCCCC [PC 6:0, 6:0] | – | – | – | residual activity 1A9 ([1]; 50 μM PC components): 96.1%; residual activity 1A6 ([2]; 50 μM PC components): 67.3%; residual activity 1A8 ([3]; 50 μM PC components): 116.2% |
| CCCCCCC(=O)OC[C@H](COP(=O)([O-])OCC[N+](C)(C)C)OC(=O)CCCCCC [PC 7:0, 7:0] | – | – | – | residual activity 1A9 ([1]; 50 μM PC components): 137.7%; residual activity 1A6 ([2]; 50 μM PC components): 50.7%; residual activity 1A8 ([3]; 50 μM PC components): 106.1% |
| CCCCCCCC(=O)OC[C@H](COP(=O)([O-])OCC[N+](C)(C)C)OC(=O)CCCCCCC [PC 8:0, 8:0] | – | – | – | residual activity 1A9 ([1]; 50 μM PC components): 180.5%; inhibition percentage of UGT1A6 activity [2]: 74.4%; residual activity 1A6 ([2]; 50 μM PC components): 25.6%; residual activity 1A8 ([3]; 50 μM PC components): 78.3% |
| CCCCCCCCC(=O)OC[C@H](COP(=O)([O-])OCC[N+](C)(C)C)OC(=O)CCCCCCCC [PC 9:0, 9:0] | – | – | – | inhibition percentage of UGT1A9 activity ([1]; 50 μM): 89.3%; residual activity 1A9 ([1]; 50 μM PC components): 10.7%; inhibition percentage of UGT1A6 activity [2]: 78.6%; residual activity 1A6 ([2]; 50 μM PC components): 21.4%; residual activity 1A8 ([3]; 50 μM PC components): 33.2% |
